Data on 1 compound can be found in US20240252509A1, “SELF-PRESERVING COMPOSITIONS AND MULTI-USE DISPENSERS FOR ADMINISTERING ALPHA-1062” (priority 2021, published 2024).

For data set [1], the system named is Escherichia coli (ATCC No. 8739). Briefly: USP 51 Preservative Challenge Test, E. coli. Type of data set: cell-based. To be noted: E. coli ATCC 8739, 82 mg/mL solution in water. As to the method:
(§1) In order to assess the anti-microbial properties of Alpha-1062, the USP (US Pharmacopeia) Chapter 51 Preservative Challenge Test (USP 51) was employed. The USP 51 is a common method used to gauge preservative effectiveness. Much like a Preservative Challenge Screen, it is used to evaluate the effect of preservatives in cosmetics, personal care products, and drug products. Preservatives are typically antimicrobial ingredients that are added to aqueous product formulations to help maintain the safety of the product by inhibiting the growth and reducing the number of microbial contaminants.
(§2) In the context of the present invention, Alpha-1062 (in the form of the gluconate salt) was assessed in place of (as) a preservative. No additional preservative was added to the Alpha-1062 gluconate preparation, rather an anti-microbial effect of the agent itself (Alpha-1062) was assessed. Alpha-1062 is therefore the anti-microbial agent in the assay and experiments described below.
(§3) Cultures of the following microorganisms were applied, as per standard guidelines for USP 51: • Candida albicans (ATCC No. 10231), • Aspergillus brasiliensis (ATCC No. 16404), • Escherichia coli (ATCC No. 8739), • Pseudomonas aeruginosa (ATCC No. 9027), and • Staphylococcus aureus (ATCC No. 6538). […]
(§4) The inoculated containers were incubated at 22.5±2.5° C. and each container was sampled at the appropriate intervals, as specified in Table 3. Any changes observed in the appearance of the culture was recorded at these intervals. By using the plate-count procedure, the number of CFU present in each test preparation was determined for the applicable intervals.
(§5) An inactivator (neutralizer) of the specific antimicrobial was incorporated in the plate count or in the appropriate dilution prepared for plating. These conditions were determined in the validation study for that sample based upon the conditions of media and microbial recovery incubation times listed in Table 2. Using the calculated concentrations of CFU per mL present at the start of the test, the change in log 10 values of the concentration of CFU per mL for each microorganism was calculated at the applicable test intervals, and the changes were expressed in terms of log reductions.
(§6) The requirements for antimicrobial effectiveness are met if the criteria specified under Table 3 are met. No increase is defined as not more than 0.5 log 10 unit higher than the previous value measured. […]
(§7) The USP Criteria for Category 2 were employed in order to determine the presence of an anti-microbial effect. […] For yeast and molds, an antimicrobial effect is evident when no increase from the initial calculated count is determined at 14 and 28 days.

Data set [2] deals with Staphylococcus aureus (ATCC No. 6538). Briefly: USP 51 Preservative Challenge Test, S. aureus. The data set is classed as cell-based. To be noted: S. aureus ATCC 6538, 82 mg/mL solution in water. As to the method: as §1, §2, §3, §4, §5, §6, §7
The conditions of data set [3]: salts described in WO 2014/016430; cited from earlier work.
The test system of data set [4] is all 5 organisms tested in the USP 51. The data set can be described thus: USP 51 test, overall assessment against Category 2 criteria. The data set is classed as cell-based. The conditions noted are these: 82 mg/mL solution in water, USP Criteria for Category 2. As to the method: as §1
In the context of the present invention, Alpha-1062 (in the form of the gluconate salt) was assessed in place of (as) a preservative. No additional preservative was added to the Alpha-1062 gluconate preparation, rather an anti-microbial effect of the agent itself (Alpha-1062) was assessed. […]
as §6, §7

For data set [5], the system named is Pseudomonas aeruginosa (ATCC No. 9027). The data set can be described thus: USP 51 Preservative Challenge Test, P. aeruginosa. The data set is classed as cell-based. The conditions noted are these: P. aeruginosa ATCC 9027, 82 mg/mL solution in water. As to the method: as §1, §2, §3, §4, §5, §6, §7
In data set [6] the test system is Candida albicans (ATCC No. 10231). Briefly: USP 51 Preservative Challenge Test, C. albicans. Type of data set: cell-based. To be noted: C. albicans ATCC 10231, 82 mg/mL solution in water. As to the method: as §1, §2, §3, §4, §5, §6, §7
Data set [7] deals with Aspergillus brasiliensis (ATCC No. 16404). Briefly: USP 51 Preservative Challenge Test, A. brasiliensis. Type of data set: cell-based. To be noted: A. brasiliensis ATCC 16404, 82 mg/mL solution in water. The method, then: as §1, §2, §3, §4, §5, §6, §7
[8] abbreviates: Day 14, log10 reduction from initial count.
[9] abbreviates: Day 28, log10 reduction from initial count.

Molecules are shown by their SMILES.

As for `COc1ccc2c3c1O[C@H]1C[C@@H](OC(=O)c4ccccc4)C=C[C@@]31CCN(C)C2` [Alpha-1062 Gluconate], the “CFU/mL Day 14” value was less than 10 CFU/mL in data set [1] (Day 14, 22.5±2.5° C., initial 9.1 × 10^5 CFU/mL); less than 10 CFU/mL in data set [2] (Day 14, initial 4.0 × 10^5 CFU/mL); less than 10 CFU/mL in data set [5] (Day 14, initial 2.9 × 10^5 CFU/mL); less than 10 CFU/mL in data set [6] (Day 14, initial 6.7 × 10^5 CFU/mL); 1.6 × 10^2 CFU/mL in data set [7] (Day 14, initial 2.2 × 10^5 CFU/mL). For the same compound, the “Log Reduction Day 14” value in data set [1] (setting [8]) was found to be 5.0; in data set [2] (setting [8]) it was 4.6; in data set [5] (setting [8]), 4.5; in data set [6] (setting [8]), 4.8; in data set [7] (setting [8]), 3.1. Besides, the “CFU/mL Day 28” value is given as less than 10 CFU/mL in data set [1] (Day 28, initial 9.1 × 10^5 CFU/mL); less than 10 CFU/mL in data set [2] (Day 28, initial 4.0 × 10^5 CFU/mL); less than 10 CFU/mL in data set [5] (Day 28, initial 2.9 × 10^5 CFU/mL); less than 10 CFU/mL in data set [6] (Day 28, initial 6.7 × 10^5 CFU/mL); 1.5 × 10^2 CFU/mL in data set [7] (Day 28, initial 2.2 × 10^5 CFU/mL). Also, the “Log Reduction Day 28” value in data set [1] (setting [9]) was found to be 5.0; in data set [2] (setting [9]) it was 4.6; in data set [5] (setting [9]), 4.5; in data set [6] (setting [9]), 4.8; in data set [7] (setting [9]), 3.1. In data set [3], the solubility in water result is listed as “above 10 % weight per volume (w/v)”. Further, the “anti-microbial effect in the USP 51” value in data set [4] is given as “strong anti-microbial effect”.
